{
  "source": "paper PMC5601486",
  "about": "“Identification of 4-phenylquinolin-2(1H)-one as a specific allosteric inhibitor of Akt” (Scientific Reports, 2017)",
  "key": {"[1]": {"tested_on": "ABL1(H396P)-nonphosphorylated", "assay": "KINOMEscan", "conditions": "50000 nM", "description": "KINOMEscan™ selectivity screen\n(§1) The assay was perfor med at DiscoveRx Corporation according the methods published previously5. Briefly, Kinase-tagged T7 phage strains were grown in parallel in an E. coli host derived from the BL21 strain. E. coli were grown to log-phase and infected with T7 phage from a frozen stock and incubated with shaking at 32°C until lysis (90-150 minutes). The kinases were produced in HEK-293 cells and subsequently tagged with DNA for qPCR detection. Streptavidin-coated magnetic beads were treated with biotinylated small molecule ligands to generate affinity resins for kinase\n(§2) inhibitor or DMSO control was performed in polypropylene 384-well plates for 1 hr at room temperature. After wash with PBS buffer containing 0.05% Tween 20, the beads were incubated in elution buffer (PBS containing 0.05 % Tween 20 and 0.5 μM non-biotinylated affinity ligand) for 30 minutes at room temperature. The kinase concentration in the eluates was measured by qPCR."}, "[2]": {"tested_on": "ERBB2", "assay": "KINOMEscan", "conditions": "50000 nM", "description": "KINOMEscan™ selectivity screen\nas §1, §2"}, "[3]": {"tested_on": "CDK8", "assay": "KINOMEscan", "conditions": "50000 nM", "description": "KINOMEscan™ selectivity screen\nas §1, §2"}, "[4]": {"tested_on": "ABL1(F317L)-nonphosphorylated", "assay": "KINOMEscan", "conditions": "50000 nM", "description": "KINOMEscan™ selectivity screen\nas §1, §2"}, "[5]": {"tested_on": "DMPK", "assay": "KINOMEscan", "conditions": "50000 nM", "description": "KINOMEscan™ selectivity screen\nas §1, §2"}, "[6]": {"tested_on": "CSNK1E", "assay": "KINOMEscan", "conditions": "50000 nM", "description": "KINOMEscan™ selectivity screen\nas §1, §2"}, "[7]": {"tested_on": "ABL1-nonphosphorylated", "assay": "KINOMEscan", "conditions": "50000 nM", "description": "KINOMEscan™ selectivity screen\nas §1, §2"}, "[8]": {"tested_on": "YANK3", "assay": "KINOMEscan", "conditions": "50000 nM", "description": "KINOMEscan™ selectivity screen\nas §1, §2"}, "[9]": {"tested_on": "SLK", "assay": "KINOMEscan", "conditions": "50000 nM", "description": "KINOMEscan™ selectivity screen\nas §1, §2"}, "[10]": {"tested_on": "MKNK2", "assay": "KINOMEscan", "conditions": "50000 nM", "description": "KINOMEscan™ selectivity screen\n(§3) Briefly, Kinase-tagged T7 phage strains were grown in parallel in an E. coli host derived from the BL21 strain. E. coli were grown to log-phase and infected with T7 phage from a frozen stock and incubated with shaking at 32°C until lysis (90-150 minutes). The kinases were produced in HEK-293 cells and subsequently tagged with DNA for qPCR detection. Streptavidin-coated magnetic beads were treated with biotinylated small molecule ligands to generate affinity resins for kinase\nas §2"}, "[11]": {"tested_on": "MAP3K3", "assay": "KINOMEscan", "conditions": "50000 nM", "description": "KINOMEscan™ selectivity screen\nas §3, §2"}, "[12]": {"tested_on": "T1, Akt-PIP3 association", "T1 construct": "purchased Millipore 14-279", "assay": "PIP3-Akt pull-down assay", "format": "binding", "conditions": "inactive Akt, PIP3 beads", "protocol": "according to the method reported previously6. Briefly, the lipids dissolved in methanol/chloroform were mixed at desired proportions and dried with a N2 steam.\nThe lipid mixture was redissolved in 2 mL cyclohexane containing 75 μM BHT (2,6-di-tert-butyl-p-cresol) and lyophilized under vacuum. Unilamellar vesicles were obtained by reconstituting the dried sample with 1 mL of PBS (pH 7.4) containing 50 μM DTPA (diethylenetriamine pentaacetic acid) followed by extrusion with 0.1 μm polycarbonate membrane (Corning, Inc.). For in vitro phosphorylation of Akt, 1 μL […]\nmixture was resolved on SDS gel followed by western blot analysis.\nThe assay was performed using a protocol published previously7.\n(50 ng) in PBS containing 400 ng/mL BSA was incubated with inhibitor G7 or a PI analog (EMD Millipore, #124005) for 2 hr at 4 °C. 25 µL PIP3 beads (Echelon, #P-B345a) was added to the sample and incubated overnight at 4 °C. The beads were washed with washing buffer containing 10 mM HEPES (pH 7.5), 0.25% NP-40 and 150 mM NaCl. Akt was eluted with 2x LDS and measured by immunoblotting.\nChemical cross-linking and mass spectrometry"}, "[13]": {"tested_on": "GCN2(Kin.Dom.2,S808G)", "assay": "KINOMEscan", "conditions": "50000 nM", "description": "KINOMEscan™ selectivity screen\nas §1, §2"}, "[14]": {"tested_on": "RSK4(Kin.Dom.2-C-terminal)", "assay": "KINOMEscan", "conditions": "50000 nM", "description": "KINOMEscan™ selectivity screen\nas §1, §2"}, "[15]": {"tested_on": "CDKL5", "assay": "KINOMEscan", "conditions": "50000 nM", "description": "KINOMEscan™ selectivity screen\nas §3, §2"}, "[16]": {"tested_on": "activated Akt", "assay": "Substrate peptide phosphorylation by activated Akt (ELISA-based)", "format": "biochemical", "conditions": "20 µM G7, ATP and substrate peptide"}, "[17]": {"tested_on": "MYLK", "assay": "KINOMEscan", "conditions": "50000 nM", "description": "KINOMEscan™ selectivity screen\nas §1, §2"}, "[18]": {"tested_on": "NEK11", "assay": "KINOMEscan", "conditions": "50000 nM", "description": "KINOMEscan™ selectivity screen\nas §3, §2"}, "[19]": {"tested_on": "ROCK1", "assay": "KINOMEscan", "conditions": "50000 nM", "description": "KINOMEscan™ selectivity screen\nas §3, §2"}, "[20]": {"tested_on": "FLT3-autoinhibited", "assay": "KINOMEscan", "conditions": "50000 nM", "description": "KINOMEscan™ selectivity screen\nas §1, §2"}, "[21]": {"tested_on": "CIT", "assay": "KINOMEscan", "conditions": "50000 nM", "description": "KINOMEscan™ selectivity screen\nThe kinases were produced in HEK-293 cells and subsequently tagged with DNA for qPCR detection. Streptavidin-coated magnetic beads were treated with biotinylated small molecule ligands to generate affinity resins for kinase\nas §2"}, "[22]": {"tested_on": "TGFBR2", "assay": "KINOMEscan", "conditions": "50000 nM", "description": "KINOMEscan™ selectivity screen\nas §1, §2"}, "[23]": {"tested_on": "EPHA8", "assay": "KINOMEscan", "conditions": "50000 nM", "description": "KINOMEscan™ selectivity screen\nas §1, §2"}, "[24]": {"tested_on": "JAK1(JH2domain-pseudokinase)", "assay": "KINOMEscan", "conditions": "50000 nM", "description": "KINOMEscan™ selectivity screen\nas §1, §2"}, "[25]": {"tested_on": "EPHA3", "assay": "KINOMEscan", "conditions": "50000 nM", "description": "KINOMEscan™ selectivity screen\nas §1, §2"}, "[26]": {"tested_on": "HCK", "assay": "KINOMEscan", "conditions": "50000 nM", "description": "KINOMEscan™ selectivity screen\nas §3, §2"}, "[27]": {"tested_on": "PKAC-beta", "assay": "KINOMEscan", "conditions": "50000 nM", "description": "KINOMEscan™ selectivity screen\nas §1, §2"}, "[28]": {"tested_on": "CHEK2", "assay": "KINOMEscan", "conditions": "50000 nM", "description": "KINOMEscan™ selectivity screen\nas §3, §2"}, "[29]": {"tested_on": "ACVRL1", "assay": "KINOMEscan", "conditions": "50000 nM", "description": "KINOMEscan™ selectivity screen\nas §1, §2"}, "[30]": {"tested_on": "FRK", "assay": "KINOMEscan", "conditions": "50000 nM", "description": "KINOMEscan™ selectivity screen\nas §1, §2"}, "[31]": {"tested_on": "FLT3(D835V)", "assay": "KINOMEscan", "conditions": "50000 nM", "description": "KINOMEscan™ selectivity screen\nas §1, §2"}, "[32]": {"tested_on": "FLT3(N841I)", "assay": "KINOMEscan", "conditions": "50000 nM", "description": "KINOMEscan™ selectivity screen\nas §3, §2"}, "[33]": {"tested_on": "DLK", "assay": "KINOMEscan", "conditions": "50000 nM", "description": "KINOMEscan™ selectivity screen\nas §1, §2"}, "[34]": {"tested_on": "CSNK1D", "assay": "KINOMEscan", "conditions": "50000 nM", "description": "KINOMEscan™ selectivity screen\nas §1, §2"}, "[35]": {"tested_on": "MAST1", "assay": "KINOMEscan", "conditions": "50000 nM", "description": "KINOMEscan™ selectivity screen\nas §1, §2"}, "[36]": {"tested_on": "NEK7", "assay": "KINOMEscan", "conditions": "50000 nM", "description": "KINOMEscan™ selectivity screen\nas §1, §2"}},
  "note": "“Also recorded” adds a separate entry of the source.",
  "data": [
    {"smiles": "Oc1cc(-c2ccccc2)c2ccccc2n1", "note": "[G7, 4-phenylquinolin-2(1H)-one]", "values": [
      {"measurement": "Percent Control", "setting": "[1]", "value": 62, "unit": "%"},
      {"measurement": "Percent Control", "setting": "[2]", "value": 98, "unit": "%"},
      {"measurement": "Percent Control", "setting": "[3]", "value": 85, "unit": "%"},
      {"measurement": "Percent Control", "setting": "[4]", "value": 94, "unit": "%"},
      {"measurement": "Percent Control", "setting": "[5]", "value": 100, "unit": "%"},
      {"measurement": "Percent Control", "setting": "[6]", "value": 15, "unit": "%"},
      {"measurement": "Percent Control", "setting": "[7]", "value": 81, "unit": "%"},
      {"measurement": "Percent Control", "setting": "[8]", "value": 93, "unit": "%"},
      {"measurement": "Percent Control", "setting": "[9]", "value": 89, "unit": "%"},
      {"measurement": "Percent Control", "setting": "[10]", "value": 65, "unit": "%"},
      {"measurement": "Percent Control", "setting": "[11]", "value": 62, "unit": "%"},
      {"measurement": "effect on the Akt-PIP3 association", "setting": "[12]", "value": "insignificant effect"},
      {"measurement": "Percent Control", "setting": "[13]", "value": 99, "unit": "%"},
      {"measurement": "Percent Control", "setting": "[14]", "value": 38, "unit": "%"},
      {"measurement": "Percent Control", "setting": "[15]", "value": 100, "unit": "%"},
      {"measurement": "effect on phosphorylation capability of activated Akt", "setting": "[16]", "value": "No effects; also recorded: only negligible change"},
      {"measurement": "Percent Control", "setting": "[17]", "value": 90, "unit": "%"},
      {"measurement": "Percent Control", "setting": "[18]", "value": 90, "unit": "%"},
      {"measurement": "Percent Control", "setting": "[19]", "value": 69, "unit": "%"},
      {"measurement": "Percent Control", "setting": "[20]", "value": 54, "unit": "%"},
      {"measurement": "Percent Control", "setting": "[21]", "value": 74, "unit": "%"},
      {"measurement": "Percent Control", "setting": "[22]", "value": 100, "unit": "%"},
      {"measurement": "Percent Control", "setting": "[23]", "value": 93, "unit": "%"},
      {"measurement": "Percent Control", "setting": "[24]", "value": 5.5, "unit": "%"},
      {"measurement": "Percent Control", "setting": "[25]", "value": 66, "unit": "%"},
      {"measurement": "Percent Control", "setting": "[26]", "value": 100, "unit": "%"},
      {"measurement": "Percent Control", "setting": "[27]", "value": 86, "unit": "%"},
      {"measurement": "Percent Control", "setting": "[28]", "value": 100, "unit": "%"},
      {"measurement": "Percent Control", "setting": "[29]", "value": 100, "unit": "%"},
      {"measurement": "Percent Control", "setting": "[30]", "value": 89, "unit": "%"},
      {"measurement": "Percent Control", "setting": "[31]", "value": 7.6, "unit": "%"},
      {"measurement": "Percent Control", "setting": "[32]", "value": 30, "unit": "%"},
      {"measurement": "Percent Control", "setting": "[33]", "value": 78, "unit": "%"},
      {"measurement": "Percent Control", "setting": "[34]", "value": 45, "unit": "%"},
      {"measurement": "Percent Control", "setting": "[35]", "value": 100, "unit": "%"},
      {"measurement": "Percent Control", "setting": "[36]", "value": 78, "unit": "%"}
    ]}
  ]
}
